In article PMC13147323, “EGFR-Targeted and MMP-Activated Membranolytic Peptides Kill Cancer Cells Specifically In Vitro and Reduce Tumor Growth In Vivo” (Molecular Pharmaceutics, 2026):
“Also recorded” adds a separate entry of the source. Counter-ions that a name gives are not always drawn. Residues, ends and D or L forms follow the SMILES beside them.

Tests used:
HB2 cells = type: cell-based, human; conditions: 24 h
Description: (§1) MDA-MB-468, MDA-MB-231, BT-474, AU-565, HB2, and MCF-10A cells were procured from American Type Culture Collection (ATCC) and validated for lack of mycoplasma contamination (MycoAlert; Lonza, Basel, Switzerland) and identity (short tandem repeat profiling; Source Bioscience, Nottingham, UK). Cells (except MCF-10A) were cultured in Dulbecco’s modified Eagle medium (DMEM) supplemented with 10% (v/v) fetal calf serum (FCS) and 100 units/mL penicillin–streptomycin (Thermo Scientific; Waltham, MA, USA). MCF-10A was cultured in DMEM supplemented with 5% horse serum, 0.1 μg/mL cholera toxin, 0.5 μg/mL hydrocortisone, 0.02 μg/mL epidermal growth factor, and 100 units/mL penicillin–streptomycin (Thermo Scientific, Waltham, MA, USA). Cells were grown at 37 °C in a humidified incubator with 5% CO2. Cells were maintained and experiments were performed under conditions ensuring cell densities that supported exponential growth.
(§2) Cells were seeded in 96-well plates at 1 × 10^4 cells/well in complete growth media and incubated for 18 h. Cells were then treated with peptides (0–250 μM) for up to 24 h. Cells were then incubated with 0.5 mg/mL MTT dissolved in PBS for 3 h. Formazan crystals were dissolved using […] of isopropanol and absorbance was measured at 570 nm on a microplate spectrophotometer (Biotech Instruments, USA). For spheroids assays, MDA-MB-468 or HB2 cells (1000 cells/well) were seeded in 250 μL of DMEM supplemented with 10% FCS and 2.5% Matrigel (Corning, New York, USA) in low-adherent, round-bottom 96-well plates (Corning, New York, USA). The plates were centrifuged at 360g for 10 min and subsequently incubated for 48 h to allow spheroid formation. MDA-MB-468 or HB2 spheroids were then treated with peptides at the IC50 doses determined for MDA-MB-468 cells for 24 h. Cellular viability within spheroids was assessed by staining with Hoechst 33342 (5 μg/mL) for 30 min, followed by propidium iodide (PI) (1.5 μg/mL) for 10 min. Red fluorescence indicated nonviable cells stained with PI, whereas blue fluorescence represented both viable and nonviable cells stained with Hoechst 33342. The survival of spheroids was determined by calculating ratios of blue/red fluorescence using ImageJ software.
(§3) A panel of human breast epithelial cell lines was established, including two lines from a nontransformed origin (MCF-10A; HB2) and four cancer lines (BT-474; AU-565; MDA-MB-231; MDA-MB-468). Cells were treated with different doses of MP1 or the modified peptides. Survival was assessed relative to untreated using MTT assays (Figures and S2) and IC50 doses were determined for each peptide in each cell line.

MDA-MB-468 cells [1] = type: cell-based, human; conditions: 24 h
Description: as §1, §2, §3

red blood cells = experiment: Ex vivo hemolysis assay; type: cell-based; conditions: mouse RBCs 1:50 in PBS, 1 h, 37 °C, absorbance 540 nm
Description: Blood was collected from five 10-week-old male C57BL/6 mice via cardiac puncture following cervical dislocation, using pediatric blood collection tubes containing K3 EDTA (Greiner; Slušovice, Czechia). Blood was centrifuged (500g; 5 min; 4 °C) and plasma was removed. Red blood cells (RBCs) were resuspended to their original volume using 150 mM NaCl. RBCs were repeatedly washed and diluted to 1:50 in PBS. For a positive control, 1% (v/v) Triton X-100 was used (100% lysis), while cells incubated in PBS served as a negative control (0% lysis). 200 μL of RBCs in triplicate was treated with peptides and incubated on an orbital shaker (100 rpm; 1 h; 37 °C). Samples were centrifuged (500g; 5 min) and supernatants, containing lysed RBCs, were collected. Hemolysis was quantified by measuring absorbance at 540 nm.
Our next aim was to assess whether our various peptides had potential as anticancer therapeutics using an in vivo model. To our knowledge, MP1 or MP1-derived peptides have not previously been used experimentally in vivo, therefore we first performed an in vitro hemolysis assay to aid selection of peptides that could be suitable for intravenous delivery. Red blood cells were isolated from mouse blood and treated with three different doses of MP1 wildtype or our targeted peptides (EGFR and EGFR-MMP versions of both MP1 and D2K) and hemolysis was measured (Figure A).

MDA-MB-231 cells = type: cell-based, human; conditions: 24 h
Description: as §1, §2, §3

MCF-10A cells = type: cell-based, human; conditions: 24 h
Description: as §1, §2, §3

AU-565 cells = type: cell-based, human; conditions: 24 h
Description: as §1, §2, §3

BT-474 cells = type: cell-based, human; conditions: 24 h
Description: as §1, §2, §3

MDA-MB-468 cells [2] = experiment: MTT survival with or without MMP-2 inhibitor, MDA-MB-468; type: cell-based, human; conditions: MDA-MB-468, MTT, 24 h; 20 μM EGFR-MP1, 30 μM EGFR-MMP-MP1 or 2 μM chlorhexidine dihydrochloride alone
Description: Cells were seeded in 6-well plates at 3 × 10^5 in complete medium and allowed to grow for 48 h. 500 μL of cell media from each cell line was collected and centrifuged at 5000 rpm for 15 min at 4 °C. Supernatants were collected and 50 μL of each was added in 3 replicate wells of a monoclonal mouse antihuman MMP-2 antibody precoated 96-well ELISA plate (Human Total MMP-2 kit; BioLegend, USA). It was then mixed with the respective assay buffers as per the kit instruction. The plate was then sealed and incubated at room temperature (2 h). The supernatant sample was then discarded and the wells were washed with assay buffer several times. Next, 100 μL of Human Total MMP-2 Detection Antibody solution was added into the wells and incubated (1 h). 100 μL of Avidin-HRP solution was then added for 1 h, and finally, after washing, 100 μL of substrate solution was added. Absorbance was measured at 450 nm (Biotech Instruments, USA). The final MMP-2 concentration was calculated against a standard curve. […]
We were also interested to test formally whether the efficacy of EGFR-MMP-MP1 was dependent on MMP-2 activity. Therefore, we treated MDA-MB-468 cells with EGFR-MMP-MP1 or with EGFR-MP1, in the presence or absence of the MMP-2 inhibitor chlorhexidine dihydrochloride, and assessed cell survival relative to untreated (Figure C,D).

Row | SMILES | IC50 (HB2 cells) [µM] | IC50 (MDA-MB-468 cells [1]) [µM] | hemolysis (red blood cells; 50 μM peptide, 1% Triton X-100 = 100%) [%] | IC50 (MDA-MB-231 cells) [µM] | IC50 (MCF-10A cells) [µM] | IC50 (AU-565 cells) [µM] | IC50 (BT-474 cells) [µM] | hemolysis (in words) (red blood cells; three doses) | cell survival relative to untreated, single agent (MDA-MB-468 cells [2])
1 | CC[C@H](C)[C@H](N)C(=O)N[C@@H](CCCCN)C(=O)N[C@@H](Cc1c[nH]c2ccccc12)C(=O)N[C@@H](CCCCN)C(=O)N[C@@H](CCCCN)C(=O)N[C@@H](CC(C)C)C(=O)N[C@@H](CC(C)C)C(=O)N[C@@H](CC(=O)O)C(=O)N[C@@H](C)C(=O)N[C@@H](C)C(=O)N[C@@H](CCCCN)C(=O)N[C@@H](CCC(N)=O)C(=O)N[C@H](C(=O)N[C@@H](CC(C)C)C(=O)NCC(=O)NCC(=O)N[C@@H](Cc1ccc(O)cc1)C(=O)N[C@@H](Cc1c[nH]cn1)C(=O)N[C@@H](Cc1c[nH]c2ccccc12)C(=O)N[C@@H](Cc1ccc(O)cc1)C(=O)NCC(=O)N[C@@H](Cc1ccc(O)cc1)C(=O)N[C@H](C(=O)N1CCC[C@H]1C(=O)N[C@@H](CCC(=O)O)C(=O)N[C@@H](CC(N)=O)C(=O)N[C@H](C(=O)N[C@H](C(=O)O)[C@@H](C)CC)C(C)C)[C@@H](C)O)[C@@H](C)CC [EGFR-D2K] (H-IKWKKLLDAAKQILGGYHWYGYTPENVI-OH) | 50.5 | 27.2 | – | – | – | – | – | – | –
2 | CC[C@H](C)[C@H](N)C(=O)N[C@@H](CCCCN)C(=O)N[C@@H](Cc1c[nH]c2ccccc12)C(=O)N[C@@H](CCCCN)C(=O)N[C@@H](CCCCN)C(=O)N[C@@H](CC(C)C)C(=O)N[C@@H](CC(C)C)C(=O)N[C@@H](CC(=O)O)C(=O)N[C@@H](C)C(=O)N[C@@H](C)C(=O)N[C@@H](CCCCN)C(=O)N[C@@H](CCC(N)=O)C(=O)N[C@H](C(=O)N[C@@H](CC(C)C)C(=O)NCC(=O)N1CCC[C@H]1C(=O)N[C@@H](CC(C)C)C(=O)NCC(=O)N[C@H](C(=O)N[C@@H](C)C(=O)NCC(=O)N[C@@H](CCC(N)=O)C(=O)N[C@@H](Cc1ccc(O)cc1)C(=O)N[C@@H](Cc1c[nH]cn1)C(=O)N[C@@H](Cc1c[nH]c2ccccc12)C(=O)N[C@@H](Cc1ccc(O)cc1)C(=O)NCC(=O)N[C@@H](Cc1ccc(O)cc1)C(=O)N[C@H](C(=O)N1CCC[C@H]1C(=O)N[C@@H](CCC(=O)O)C(=O)N[C@@H](CC(N)=O)C(=O)N[C@H](C(=O)N[C@H](C(=O)O)[C@@H](C)CC)C(C)C)[C@@H](C)O)[C@@H](C)CC)[C@@H](C)CC [EGFR-MMP-D2K] (H-IKWKKLLDAAKQILGPLGIAGQYHWYGYTPENVI-OH) | 79.8 | 32.1 | 5.9 | – | – | – | – | – | –
3 | CC[C@H](C)[C@H](N)C(=O)N[C@@H](CC(=O)O)C(=O)N[C@@H](Cc1c[nH]c2ccccc12)C(=O)N[C@@H](CCCCN)C(=O)N[C@@H](CCCCN)C(=O)N[C@@H](CC(C)C)C(=O)N[C@@H](CC(C)C)C(=O)N[C@@H](CC(=O)O)C(=O)N[C@@H](C)C(=O)N[C@@H](C)C(=O)N[C@@H](CCCCN)C(=O)N[C@@H](CCC(N)=O)C(=O)N[C@H](C(=O)N[C@@H](CC(C)C)C(=O)NCC(=O)NCC(=O)N[C@@H](Cc1ccc(O)cc1)C(=O)N[C@@H](Cc1c[nH]cn1)C(=O)N[C@@H](Cc1c[nH]c2ccccc12)C(=O)N[C@@H](Cc1ccc(O)cc1)C(=O)NCC(=O)N[C@@H](Cc1ccc(O)cc1)C(=O)N[C@H](C(=O)N1CCC[C@H]1C(=O)N[C@@H](CCC(=O)O)C(=O)N[C@@H](CC(N)=O)C(=O)N[C@H](C(=O)N[C@H](C(=O)O)[C@@H](C)CC)C(C)C)[C@@H](C)O)[C@@H](C)CC [EGFR-MP1] (H-IDWKKLLDAAKQILGGYHWYGYTPENVI-OH) | 71.4 | 39.6 | – | 39.3 | 93.4 | 91.4 | 98.3 | – | –
4 | CC[C@H](C)[C@H](N)C(=O)N[C@@H](CC(=O)O)C(=O)N[C@@H](Cc1c[nH]c2ccccc12)C(=O)N[C@@H](CCCCN)C(=O)N[C@@H](CCCCN)C(=O)N[C@@H](CC(C)C)C(=O)N[C@@H](CC(C)C)C(=O)N[C@@H](CC(=O)O)C(=O)N[C@@H](C)C(=O)N[C@@H](C)C(=O)N[C@@H](CCCCN)C(=O)N[C@@H](CCC(N)=O)C(=O)N[C@H](C(=O)N[C@@H](CC(C)C)C(=O)O)[C@@H](C)CC [MP1, reference compound] (H-IDWKKLLDAAKQIL-OH) | 31.5 | 23.4 | – | 35 | 111 | 18.7 | 50.6 | unacceptably high levels of hemolysis at all doses; also recorded: unacceptably high hemolytic activity | –
5 | [H]/N=C(\N/C(=N/[H])NCCCCCCNC(=N)NC(=N)Nc1ccc(Cl)cc1)Nc1ccc(Cl)cc1 [chlorhexidine dihydrochloride] | – | – | – | – | – | – | – | – | small and nonsignificant decrease
